Results reported in PubChem BioAssay AID1963849 (Molecular Pharmacology Branch, DTP, NCI, 2024).

Test system: 299254-011-R-J1-PDC complex spheroid viability
Assay: Anticancer human tumor 299254-011-R-J1-PDC patient-derived melanoma cell line growth inhibition [POLQ]
Settings: for IC50: curve of first compound; for viability, T/C: stronger effect = lower value
Protocol: Multicellular complex tumor spheroid response to Polymerase (POL) inhibitors (novobiocin, ART-558, RP6685) in combination with a variety of drugs and investigational agents in selected tumor cell lines
The POL inhibitors (novobiocin, ART-558, and RP6685) were evaluated both individually and in combination with standard of care and investigational anticancer small molecules within a complex spheroid model of solid tumors. . Complex spheroids include a stromal component modeled by human endothelial cells (HUVEC) and fibroblasts modeled by human mesenchymal stem cells (MSCs). The concentration ranges selected for each drug and investigational agent were based upon clinically achievable concentrations if the clinical Cmax of the agent was known.
Compounds. The drugs and investigational agents: novobiocin (NSC847541), ART-558 (NSC835418), RP-6685 (NSC848927), peposertib (NSC802822), ceralasertib (NSC780249), elimusertib (NSC800525), camonsertib (NSC841442), AZD-1390 (NSC803789), olaparib (NSC753686), talazoparib (NSC767125), rucaparib (NSC756644), sotorasib (NSC818433), MRTX-1133 (NSC836407), SN-38 (NSC673596), topotecan (NSC609699), epotoside (NSC141540), doxorubicin (NSC123127), gemcitabine (NSC613327), 5-fluorouracil (NSC19893), paclitaxel (NSC125973), vemurafenib (NSC761431), MSA-2 (NSC828583), SN-011 (NSC837082), adavosertib (NSC754352), prexasertib (NSC758257), carboplatin (NSC241240) and oxaliplatin (NSC266046), were obtained from the National Cancer Institute (NCI) Developmental Therapeutics Program Chemical Repository (21). The FDA-approved anticancer drug set is available from the Developmental Therapeutics Program at https://dtp.cancer.gov/organization/dscb/obtaining/. […] The stock solutions were prepared in dimethyl sulfoxide (DMSO, Sigma-Aldrich, St. Louis, MO, cat. D2650), except for the platinum compounds which were prepared in saline (Quality Biological, Gaithersburg, MD, cat. 114-055-101), at 800-fold the tested concentration and stored at -70 degrees C prior to their use. All drugs and investigational agents were tested over a range starting from a high concentration at or near the clinical Cmax and decreasing in half-log increments. If the clinical Cmax for an agent had not been determined, the highest concentration tested was 10 microM, except for SN-38, which was tested at a high concentration of 1 microM.
Cell Culture. All cells were maintained in an incubator at 37 degrees C and 5% CO2 with 95% humidity. The PDC lines were cultured according to standard operating procedures established by the NCI PDMR (https://pdmr.cancer.gov). Table 3 of the manuscript, lists the cell lines along with the number of the three cell types plated to form the mct-spheroids and media for tumor cell growth. After thawing, all PDC lines, except 997537-175-T-J1-PDC and 415267-285-R-J2-PDC, were cultured in Matrigel-coated flasks prepared with a working solution of 1X Ham's F-12 nutrient mix, without supplementation (Thermo Fisher Scientific, cat. 11765054), 100 U/mL penicillin-streptomycin (Thermo Fisher Scientific, cat. 15140122), and 2.5% Matrigel (Corning Inc., Corning, NY, cat. 354248) for the first three passages. The two PDC lines 997537-175-T-J1-PDC and 415267-285-R-J2-PDC were cultured on uncoated flasks. The 857933-349-R-J2-PDC line was cultured in 6C/Colon 1B media containing advanced DMEM/F-12 (Thermo Fisher Scientific, cat. 12634028), 10 mM HEPES (Thermo Fisher Scientific, cat. 15630080), 1X GlutaMAX supplement (Thermo Fisher Scientific, cat. 35050061), 0.1 mg/mL primocin (InvivoGen, San Diego, CA, cat. ant-pm-2), 10% defined fetal bovine serum, heat inactivated (HyClone Laboratories Inc., Logan, UT, cat. SH30070.03HI), 50% L-WRN conditioned media (ATCC, cat. CRL-3276), 1.25 mM N-Acetyl-L-cysteine (Sigma-Aldrich, cat. A9165), 10 mM nicotinamide (Sigma-Aldrich, cat. N0636), 1X B-27 supplement (Thermo Fisher Scientific, cat. 17504044), 1X N-2 supplement (Thermo Fisher Scientific, cat. […]

[1] = second compound 0.0316 µM, first compound 0.0316 µM
[2] = second compound 0.0316 µM, first compound 0.1 µM
[3] = second compound 0.1 µM, first compound 0.0316 µM
[4] = second compound 0.1 µM, first compound 0.1 µM
[5] = second compound 0.316 µM, first compound 0.0316 µM
[6] = second compound 0.316 µM, first compound 0.1 µM
[7] = second compound 1 µM, first compound 0.0316 µM
[8] = second compound 1 µM, first compound 0.1 µM
[9] = second compound 3.16 µM, first compound 0.0316 µM
[10] = second compound 3.16 µM, first compound 0.1 µM
[11] = second compound 10 µM, first compound 0.0316 µM
[12] = second compound 10 µM, first compound 0.1 µM
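Further: spheroids exposed to drugs for one week before measurement.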
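Wherever viability, T/C is given: percent viability relative to DMSO vehicle control taken as 100%.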

CC[C@@]1(O)C(=O)OCc2c1cc1n(c2=O)Cc2cc3c(CN(C)C)c(O)ccc3nc2-1 + Cc1cccc(N(C)C(=O)C2C(O)CCN2c2nc(C)cc(C(F)(F)F)c2C#N)c1
IC50 (second compound 0.0316 µM): > 0.1 µM
IC50 (second compound 0.1 µM): > 0.1 µM
IC50 (second compound 0.316 µM): > 0.1 µM
IC50 (second compound 1 µM): > 0.1 µM
IC50 (second compound 3.16 µM): > 0.1 µM
IC50 (second compound 10 µM): > 0.1 µM
viability, T/C (second compound 0.0316 µM, first compound 0.000316 µM): 101%
viability, T/C (second compound 0.0316 µM, first compound 0.001 µM): 100%
viability, T/C (second compound 0.0316 µM, first compound 0.00316 µM): 95.6%
viability, T/C (second compound 0.0316 µM, first compound 0.01 µM): 104%
viability, T/C [1]: 117%
viability, T/C [2]: 81%
viability, T/C (second compound 0.1 µM, first compound 0.000316 µM): 104%
viability, T/C (second compound 0.1 µM, first compound 0.001 µM): 98.6%
viability, T/C (second compound 0.1 µM, first compound 0.00316 µM): 97%
viability, T/C (second compound 0.1 µM, first compound 0.01 µM): 113%
viability, T/C [3]: 113%
viability, T/C [4]: 84.1%
viability, T/C (second compound 0.316 µM, first compound 0.000316 µM): 110%
viability, T/C (second compound 0.316 µM, first compound 0.001 µM): 115%
viability, T/C (second compound 0.316 µM, first compound 0.00316 µM): 103%
viability, T/C (second compound 0.316 µM, first compound 0.01 µM): 120%
viability, T/C [5]: 116%
viability, T/C [6]: 80.9%
viability, T/C (second compound 1 µM, first compound 0.000316 µM): 111%
viability, T/C (second compound 1 µM, first compound 0.001 µM): 112%
viability, T/C (second compound 1 µM, first compound 0.00316 µM): 100%
viability, T/C (second compound 1 µM, first compound 0.01 µM): 123%
viability, T/C [7]: 99.2%
viability, T/C [8]: 90.5%
viability, T/C (second compound 3.16 µM, first compound 0.000316 µM): 108%
viability, T/C (second compound 3.16 µM, first compound 0.001 µM): 115%
viability, T/C (second compound 3.16 µM, first compound 0.00316 µM): 89.1%
viability, T/C (second compound 3.16 µM, first compound 0.01 µM): 106%
viability, T/C [9]: 119%
viability, T/C [10]: 89.6%
viability, T/C (second compound 10 µM, first compound 0.000316 µM): 94.9%
viability, T/C (second compound 10 µM, first compound 0.001 µM): 102%
viability, T/C (second compound 10 µM, first compound 0.00316 µM): 90.8%
viability, T/C (second compound 10 µM, first compound 0.01 µM): 97%
viability, T/C [11]: 95.3%
viability, T/C [12]: 69.7%

O=C(c1cc(Cc2n[nH]c(=O)c3ccccc23)ccc1F)N1CCN(C(=O)C2CC2)CC1 + Cc1cccc(N(C)C(=O)C2C(O)CCN2c2nc(C)cc(C(F)(F)F)c2C#N)c1
IC50 (second compound 0.0316 µM): > 10 µM
IC50 (second compound 0.1 µM): > 10 µM
IC50 (second compound 0.316 µM): > 10 µM
IC50 (second compound 1 µM): > 10 µM
IC50 (second compound 3.16 µM): > 10 µM
IC50 (second compound 10 µM): > 10 µM
viability, T/C [1]: 90.3%
viability, T/C [2]: 85.9%
viability, T/C (second compound 0.0316 µM, first compound 0.316 µM): 98.3%
viability, T/C (second compound 0.0316 µM, first compound 1 µM): 104%
viability, T/C (second compound 0.0316 µM, first compound 3.16 µM): 99.6%
viability, T/C (second compound 0.0316 µM, first compound 10 µM): 101%
viability, T/C [3]: 93.5%
viability, T/C [4]: 108%
viability, T/C (second compound 0.1 µM, first compound 0.316 µM): 95%
viability, T/C (second compound 0.1 µM, first compound 1 µM): 97.5%
viability, T/C (second compound 0.1 µM, first compound 3.16 µM): 110%
viability, T/C (second compound 0.1 µM, first compound 10 µM): 77.4%
viability, T/C [5]: 93%
viability, T/C [6]: 94%
viability, T/C (second compound 0.316 µM, first compound 0.316 µM): 95.9%
viability, T/C (second compound 0.316 µM, first compound 1 µM): 104%
viability, T/C (second compound 0.316 µM, first compound 3.16 µM): 106%
viability, T/C (second compound 0.316 µM, first compound 10 µM): 83.8%
viability, T/C [7]: 125%
viability, T/C [8]: 101%
viability, T/C (second compound 1 µM, first compound 0.316 µM): 108%
viability, T/C (second compound 1 µM, first compound 1 µM): 117%
viability, T/C (second compound 1 µM, first compound 3.16 µM): 102%
viability, T/C (second compound 1 µM, first compound 10 µM): 80.2%
viability, T/C [9]: 96.4%
viability, T/C [10]: 111%
viability, T/C (second compound 3.16 µM, first compound 0.316 µM): 99.6%
viability, T/C (second compound 3.16 µM, first compound 1 µM): 115%
viability, T/C (second compound 3.16 µM, first compound 3.16 µM): 92.8%
viability, T/C (second compound 3.16 µM, first compound 10 µM): 74.2%
viability, T/C [11]: 102%
viability, T/C [12]: 94.5%
viability, T/C (second compound 10 µM, first compound 0.316 µM): 83.2%
viability, T/C (second compound 10 µM, first compound 1 µM): 89.2%
viability, T/C (second compound 10 µM, first compound 3.16 µM): 92.9%
viability, T/C (second compound 10 µM, first compound 10 µM): 69%
